Patent US12370263B2, “Cyclic dinucleotide derivative based antibody-drug conjugates” (DAIICHI SANKYO COMPANY, LIMITED, priority 2018, dated 2025)
Read-outs that look alike come from different tables or passages of the source.

Legend:
Human STING = Human STING (Homo sapiens, UniProt Q86WV6, G230A/H232R/R293Q/R71H); assay: Reporter gene assay, human STING agonist activity, THP1-Dual cells (HAQ-mutated), IRF pathway; settings: 24 hours, 100% = maximum count with ML-RR-CDA·2Na+
Method: Human STING agonist activity was evaluated by using THP1-Dual™ cells (HAQ-mutated) (InvivoGen, CA, US), with which the activation of the pathway of interferon regulatory factor-3 (IRF3), which is present in the downstream of the STING pathway, can be confirmed.
Assay was performed as follows. First, a test compound diluted with PBS was aliquoted into a transparent 96-well plate (Corning Incorporated, NY, US) at 20 μL/well. Subsequently, reporter cells suspended in assay buffer (an RPMI1640 medium or DMEM medium containing 10% bovine serum albumin) were added at 180 μL/well (1×10^5 cells/well) to initiate stimulation. After the cells were cultured in an environment at 37° C. and 5% CO2 for 24 hours, the resultant was centrifuged to collect the supernatant. To a white 384-well plate, 6 μL of the supernatant collected was added, and 15 μL of QUANTI-Luc (InvivoGen) solution was added thereto. After the resultant was well mixed together, emission was measured by using a plate reader (PerkinElmer, Inc., MA, US).

[1] = target: T1, HisAviTEV-hSTING (139-342) human wild-type protein (Homo sapiens, UniProt Q86WV6, H232R); assay: Protein thermal shift assay, STING C-terminal binding domain protein; settings: test compound final concentration 0.5 mM
T1 construct: made in house; host or cells: E. coli Rosetta 2 (DE3), co-expressed with BirA (1-321)

[2] = THP1-Dual cells IRF EC50, THP1-Dual cells (HAQ-mutated)
[3] = read-out: THP1-Dual cells IRF EC50, THP1-Dual cells (HAQ-mutated)

Human STING, sequence (Q86WV6 whole entry R71H/G230A/H232R/R293Q, the tested form may be a part): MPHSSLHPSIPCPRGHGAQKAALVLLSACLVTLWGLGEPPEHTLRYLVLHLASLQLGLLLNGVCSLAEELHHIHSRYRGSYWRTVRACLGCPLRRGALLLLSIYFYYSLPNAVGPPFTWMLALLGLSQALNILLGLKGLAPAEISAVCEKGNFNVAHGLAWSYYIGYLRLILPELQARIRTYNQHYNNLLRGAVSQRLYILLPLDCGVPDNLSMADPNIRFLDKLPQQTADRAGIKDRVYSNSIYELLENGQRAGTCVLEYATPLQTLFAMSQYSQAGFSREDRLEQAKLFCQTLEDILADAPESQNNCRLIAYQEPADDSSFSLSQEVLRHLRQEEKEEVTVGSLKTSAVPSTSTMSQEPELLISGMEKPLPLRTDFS
T1 sequence (Q86WV6 with tags, fused parts or gaps H232R): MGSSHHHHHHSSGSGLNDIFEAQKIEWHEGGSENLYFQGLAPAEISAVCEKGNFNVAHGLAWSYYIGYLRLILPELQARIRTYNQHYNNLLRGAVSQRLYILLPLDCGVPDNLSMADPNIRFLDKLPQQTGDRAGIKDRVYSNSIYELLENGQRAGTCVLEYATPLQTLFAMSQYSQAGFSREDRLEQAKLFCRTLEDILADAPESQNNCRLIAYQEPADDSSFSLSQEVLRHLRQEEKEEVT

SMILES	EC50 (Human STING; [2]) [µM]	other results
Nc1ncnc2c1ncn2[C@@H]1O[C@@H]2COP(=O)(S)O[C@H]3[C@@H](O)[C@H](n4cc5c6c(ncnc64)NCCC5)O[C@@H]3COP(=O)(S)O[C@@H]1[C@@H]2O (stereo partly drawn) [47a, Disodium (2S,5R,7R,8R,12aR,14R,15R,15aS,16R)-7-(6-amino-9H-purin-9-yl)-15,16-dihydroxy-2-oxo-10-sulfanylidene-14-(6,7,8,9-tetrahydro-2H-2,3,5,6-tetraazabenzo[cd]azulen-2-yl)octahydro-2H,10H,12H-5,8-methano-2λ^5,10λ^5-furo[3,2-1][1,3,6,9,11,2,10]pentaoxadiphosphacyclotetradecine-2,10-bis(thiolate)]	0.58	–
NCCn1cnc2c(ncn2[C@@H]2O[C@@H]3COP(=O)(S)O[C@H]4[C@@H](O)[C@H](n5cc6c7c(ncnc75)NCCC6)O[C@@H]4COP(=O)(S)O[C@@H]2[C@@H]3O)c1=O (single isomer, unassigned) [5a]	2.4	–
NCCn1cnc2c(ncn2[C@@H]2O[C@@H]3COP(=O)(S)O[C@H]4[C@@H](O)[C@H](n5cc6c7c(ncnc75)NCCC6)O[C@@H]4COP(=O)(S)O[C@@H]2[C@@H]3F)c1=O (single isomer, unassigned) [40a]	3.4	–
O=c1c2ncn([C@@H]3O[C@@H]4COP(=O)(S)O[C@H]5[C@H](F)[C@H](n6cc7c8c(ncnc86)NCCC7)O[C@@H]5COP(=O)(S)O[C@@H]3[C@@H]4O)c2ncn1CCO (single isomer, unassigned) [33a]	0.18	–
O=c1c2ncn([C@@H]3O[C@@H]4COP(=O)(S)O[C@H]5[C@@H](F)[C@H](n6cc7c8c(ncnc86)SCCC7)O[C@@H]5COP(=O)(S)O[C@@H]3[C@@H]4O)c2ncn1CCO (single isomer, unassigned) [48b]	0.039	–
C[C@H]1CCc2cn([C@@H]3O[C@@H]4COP(=O)(S)O[C@@H]5[C@H](O)[C@@H](COP(=O)(S)O[C@H]4[C@H]3O)O[C@H]5n3cnc4c(N)ncnc43)c3ncnc(c23)O1 (single isomer, unassigned) [22b]	4.3	–
NCCn1cnc2c(ncn2[C@@H]2O[C@@H]3COP(=O)(S)O[C@H]4[C@@H](F)[C@H](n5cc6c7c(ncnc75)SCCC6)O[C@@H]4COP(=O)(S)O[C@@H]2[C@@H]3O)c1=O (single isomer, unassigned) [49a]	0.33	–
Nc1nc(NCCO)nc2c1ncn2[C@@H]1O[C@@H]2COP(=O)(S)O[C@H]3[C@@H](O)[C@H](n4cc5c6c(ncnc64)NCCC5)O[C@@H]3COP(=O)(S)O[C@@H]1[C@@H]2O (single isomer, unassigned) [9a]	5.7	–
Nc1ncnc2c1ncn2[C@@H]1O[C@@H]2COP(=O)(S)O[C@H]3[C@@H](O)[C@H](n4cc5c6c(ncnc64)NCCC5)O[C@@H]3COP(=O)(S)O[C@@H]1[C@@H]2O (single isomer, unassigned) [2a]	4.7	–
O=c1c2ncn([C@@H]3O[C@@H]4COP(=O)(O)O[C@H]5[C@@H](F)[C@H](n6cc7c8c(ncnc86)NCCC7)O[C@@H]5COP(=O)(S)O[C@@H]3[C@@H]4O)c2ncn1CCO (single isomer, unassigned) [52b]	0.46	–
O=c1c2ncn([C@@H]3O[C@@H]4COP(=O)(S)O[C@H]5C[C@H](n6cc7c8c(ncnc86)NCCC7)O[C@@H]5COP(=O)(S)O[C@@H]3[C@@H]4O)c2ncn1CCO (single isomer, unassigned) [32a]	1.2	–
Nc1ncnc2c1ncn2[C@@H]1O[C@@H]2COP(=O)(S)O[C@H]3[C@@H](O)[C@H](n4cc5c6c(ncnc64)OCCC5)O[C@@H]3COP(=O)(S)O[C@@H]1[C@@H]2O (single isomer, unassigned) [20b]	0.4	–
NCCNc1nc(N)c2ncn([C@@H]3O[C@@H]4COP(=O)(S)O[C@H]5[C@@H](F)[C@H](n6cc7c8c(ncnc86)SCCC7)O[C@@H]5COP(=O)(S)O[C@@H]3[C@@H]4F)c2n1 (single isomer, unassigned) [51a]	0.32	–
Nc1ncnc2c1ncn2[C@@H]1O[C@@H]2COP(=O)(S)O[C@H]3[C@@H](O)[C@H](n4cc5c6c(ncnc64)OCCC5)O[C@@H]3COP(=O)(S)O[C@@H]1[C@@H]2O (single isomer, unassigned) [21b]	0.7	–
O=c1c2ncn([C@@H]3O[C@@H]4COP(=O)(S)O[C@H]5C[C@H](n6cc7c8c(ncnc86)NCCC7)O[C@@H]5COP(=O)(S)O[C@@H]3[C@@H]4O)c2ncn1CCO (single isomer, unassigned) [32b]	6.4	–
Nc1ncnc2c1ncn2[C@@H]1O[C@@H]2COP(=O)(S)O[C@@H]3[C@@H](COP(=O)(S)O[C@@H]1[C@@H]2O)C[C@@H](n1cc2c4c(ncnc41)NCCC2)[C@@H]3O (single isomer, unassigned) [46b]	–	EC50 (Human STING; [3]): 0.87 µM
Nc1ncnc2c1ncn2[C@@H]1O[C@@H]2COP(=O)(S)O[C@@H]3[C@@H](COP(=O)(S)O[C@@H]1[C@@H]2O)C[C@@H](n1cc2c4c(ncnc41)NCCC2)[C@@H]3O (single isomer, unassigned) [46a]	–	EC50 (Human STING; [3]): 3.9 µM
CC(C)(N)CNc1nc(N)c2ncn([C@@H]3O[C@@H]4COP(=O)(S)O[C@H]5[C@@H](O)[C@H](n6cc7c8c(ncnc86)NCCC7)O[C@@H]5COP(=O)(S)O[C@@H]3[C@@H]4O)c2n1 (single isomer, unassigned) [10a]	6.3	–

Second part, led by results:

EC50 (Human STING; [2]) [µM]	SMILES	other results
1.6	O=c1c2ncn([C@@H]3O[C@@H]4COP(=O)(S)O[C@H]5[C@@H](O)[C@H](n6cc7c8c(ncnc86)NCCC7)O[C@@H]5COP(=O)(S)O[C@@H]3C4)c2ncn1CCO (single isomer, unassigned) [38b]	–
2.1	O=c1c2ncn([C@@H]3O[C@@H]4COP(=O)(S)O[C@H]5[C@@H](O)[C@H](n6cc7c8c(ncnc86)NCCC7)O[C@@H]5COP(=O)(S)O[C@@H]3[C@@H]4O)c2ncn1CCO (single isomer, unassigned) [6b]	–
1.8	Nc1nc(CO)nc2c1ncn2[C@@H]1O[C@@H]2COP(=O)(S)O[C@H]3[C@@H](O)[C@H](n4cc5c6c(ncnc64)NCCC5)O[C@@H]3COP(=O)(S)O[C@@H]1[C@@H]2O (single isomer, unassigned) [12b]	–
0.41	O=c1c2ncn([C@@H]3O[C@@H]4COP(=O)(S)O[C@H]5[C@@H](O)[C@H](n6cc7c8c(ncnc86)NCCC7)O[C@@H]5COP(=O)(S)O[C@@H]3[C@@H]4F)c2ncn1CCO (single isomer, unassigned) [39b]	–
0.3	Nc1ncnc2c1ncn2[C@@H]1O[C@@H]2COP(=O)(S)O[C@H]3[C@@H](O)[C@H](n4cc5c6c(ncnc64)NCCC5)O[C@@H]3COP(=O)(S)O[C@@H]1[C@@H]2O (single isomer, unassigned) [1b]	–
3.6	O=C(CO)NCCn1cnc2c(ncn2[C@@H]2O[C@@H]3COP(=O)(S)O[C@H]4[C@@H](O)[C@H](n5cc6c7c(ncnc75)NCCC6)O[C@@H]4COP(=O)(S)O[C@@H]2[C@@H]3F)c1=O (single isomer, unassigned) [41b]	–
4	NCc1nc(N)c2ncn([C@@H]3O[C@@H]4COP(=O)(S)O[C@H]5[C@@H](O)[C@H](n6cc7c8c(ncnc86)NCCC7)O[C@@H]5COP(=O)(S)O[C@@H]3[C@@H]4O)c2n1 (single isomer, unassigned) [11a]	–
3.2	NCCn1cnc2c(ncn2[C@@H]2O[C@@H]3COP(=O)(S)O[C@H]4[C@@H](O)[C@H](n5cc6c7c(ncnc75)NCCC6)O[C@@H]4COP(=O)(S)O[C@@H]2[C@@H]3F)c1=O (single isomer, unassigned) [40b]	–
1.1	O=C(CO)NCCn1cnc2c(ncn2[C@@H]2O[C@@H]3COP(=O)(S)O[C@H]4[C@@H](O)[C@H](n5cc6c7c(ncnc75)NCCC6)O[C@@H]4COP(=O)(S)O[C@@H]2[C@@H]3F)c1=O (single isomer, unassigned) [41a]	–
0.55	O=c1c2ncn([C@@H]3O[C@@H]4COP(=O)(S)O[C@H]5[C@@H](F)[C@H](n6cc7c8c(ncnc86)NCCC7)O[C@@H]5COP(=O)(S)O[C@@H]3[C@@H]4O)c2ncn1CCO (single isomer, unassigned) [34b]	–
0.35	O=c1c2ncn([C@@H]3O[C@@H]4COP(=O)(S)O[C@H]5[C@@H](F)[C@H](n6cc7c8c(ncnc86)NCCC7)O[C@@H]5COP(=O)(S)O[C@@H]3[C@@H]4F)c2ncn1CCO (single isomer, unassigned) [44b]	–
0.2	O=C(CO)NCCn1cnc2c(ncn2[C@@H]2O[C@@H]3COP(=O)(S)O[C@H]4[C@@H](F)[C@H](n5cc6c7c(ncnc75)SCCC6)O[C@@H]4COP(=O)(S)O[C@@H]2[C@@H]3O)c1=O (single isomer, unassigned) [50b]	ΔTm Hu-WT [1]: 12.3 °C
1.4	O=c1c2ncn([C@@H]3O[C@@H]4COP(=O)(S)O[C@H]5[C@@H](O)[C@H](n6cc7c8c(ncnc86)NCCC7)O[C@@H]5COP(=O)(S)O[C@@H]3[C@@H]4O)c2ncn1CCCO (single isomer, unassigned) [26a]	–
0.055	Nc1ncnc2c1ncn2[C@@H]1O[C@@H]2COP(=O)(S)O[C@H]3[C@@H](O)[C@H](n4cc5c6c(ncnc64)SCCC5)O[C@@H]3COP(=O)(S)O[C@@H]1[C@@H]2O (single isomer, unassigned) [23b]	–
0.45	O=c1c2ncn([C@@H]3O[C@@H]4COP(=O)(S)O[C@H]5[C@@H](O)[C@H](n6cc7c8c(ncnc86)NCCC7)O[C@@H]5COP(=O)(S)O[C@@H]3C4)c2ncn1CCO (single isomer, unassigned) [38a]	–
